Data on five compounds can be found in patent US7030089B2 (priority 2000, dated 2006).

≈ marks a conversion by molar mass, not a printed value. Where “and” joins values, the source holds several entries; their conditions need not be identical. Equal values may be shown once. Read-outs that look alike come from different tables or passages of the source.

The subject of series [1] is A2780 human ovarian carcinoma cell line. Description: Cytotoxicity (growth inhibition) on A2780 cells with or without BSO pretreatment. It counts as cell-based. Here is the method:
(§1) Further evidence of the relevance of GSH levels for the cytotoxicity of the compounds of formula (I) has been obtained by determining the influence of prior treatment with BSO (L-S.R buthionine sulphoximine) on the susceptibility of A2780 human ovarian cells to their cytotoxic and apoptotic effect.
(§2) The cytotoxic activity was determined on A2780 human ovarian carcinoma cell line.
(§3) The cytotoxic activity was determined against exponentially growing cells. A2780 cells were seeded in 6 well-plates at concentration of 100,000 cells/ml for 2 ml and incubated for 24 h with the GSH inhibitor BSO and finally exposed to different concentrations of PNU 166196 (untreated cells were incubated with the medium only).
(§4) After 24 h treatment with the drug, cell growth inhibition was evaluated on the monolayer cells whereas the floating cells were used for morphology evaluation.

For series [2] the test system is unchanged. As to the kind of experiment: Apoptotic effect (cells with apoptotic morphology, fluorescence microscopy) on A2780 cells with or without BSO pretreatment. It counts as cell-based. On the procedure:
as §1, §2, §3, §4
Apoptosis was evaluated by fluorescence microscopy. At the end of the treatment, floating cells were collected, washed in PBS, fixed in 70% ice-cold ethanol and stored at −20° C. until analysis (5 days max.). Cells were then centrifuged and the pellets were stained with 50 μg/ml propidium iodide, 0.001% Nonidet P40 and 60 U/ml Rnase and stored in the dark for 30 minutes at 37° C. Cells were centrifuged and the pellets were resuspended in […]. At least 600 cells randomly chosen from 2 smears independently prepared were examined for their nuclear morphology changes (chromatin condensation and DNA fragmentation) using a fluorescence microscope [see Int. J. Cancer 65:491–497 (1996)]. All the experiments were carried out twice. Results are reported per the enclosed table II and comments thereof.

The test system of series [3] is L1210 murine lymphocytic leukemia cell line. As to the kind of experiment: Cytotoxic activity (cell growth inhibition, counting surviving cells) on L1210. As to conditions: Mus musculus, read-out: Cytotoxicity IC50. It counts as cell-based. On the procedure: The cytotoxic activity was determined against exponentially growing cells.
All the experiments were carried out twice.

Series [4] has as its system L1210/L-PAM cells (melphalan resistant murine leukemia, high GSH). Description: cells. As to conditions: for IC50: Mus musculus, L1210/LPAM, 48 h, read-out: Cytotoxicity IC50; for Cytotoxicity on L1210/L-PAM cells in respect to L1210 cells: comparison of IC50 on the two cell lines. On the procedure:
The cytotoxic activity was determined on L1210 murine lymphocytic leukemia cell line and on the L-PAM resistant cell subline L1210/L-PAM. Cells were grown in vitro as stabilized suspension cultures.L1210 cells were maintained in RPMI 1640 medium containing β-mercaptoethanol (10 μM). L1210/L-PAM cells were maintained in RPMI 1640 medium containing β-mercaptoethanol (50 μM). All culture media (Biowhittaker, UK) were supplemented with 10% Fetal Calf Serum (Biological Industries, Israel) and 2 mM L-glutamine (Biowhittaker, UK).
The cytotoxic activity was determined against exponentially growing cells. L1210 and L1210/L-PAM cells were seeded in 24 well-plates at concentration of 50,000 cells/ml and immediately treated for 48 h with the drug.
The inhibition of cell growth was evaluated by counting surviving cells with a Coulter Counter. The antiproliferative activity of drugs was calculated from dose-response curves and expressed as IC50 (concentration inhibiting 50% cell growth in treated cultures relative to untreated controls). All the experiments were carried out twice.

The mark [5] stands for this setting: A2780, BSO alone (dose printed MM).
Setting [6] is: L1210 cells (GSH 7.7 nmole/10^6 cells), 48 h incubation.

For the compound `CCCCS(=N)(=O)CCC(N)C(=O)O` [BSO, L-S.R buthionine sulphoximine, reference compound], the Growth inhibition % in series [1] (setting [5]) is 2.5 ± 0.2%. Besides, the Apoptosis % in series [2] (setting [5]) is recorded as 0%.

With `N[C@@H](Cc1ccc(N(CCCl)CCCl)cc1)C(=O)O` [L-PAM, melphalan], the IC50 in series [3] (L1210, 48 h) was determined as 1.65 µg/mL (≈ 5.41 µM); in series [4], 8.1 µg/mL (≈ 26.5 µM). For the same compound, the “Cytotoxicity on L1210/L-PAM cells in respect to L1210 cells” value in series [4] was “lower”.

As to `C=C(Br)C(=O)Nc1cc(C(=O)Nc2cc(C(=O)Nc3cc(C(=O)Nc4cc(C(=O)NCCC(=N)N)n(C)c4)n(C)c3)n(C)c2)n(C)c1.Cl` [PNU 151807, N-(5-{[(5-{[(5-{[(3-amino-3-iminopropyl)amino]carbonyl}-1-methyl-1H-pyrrol-3-yl)amino]carbonyl}-1-methyl-1H-pyrrol-3-yl)amino]carbonyl}-1-methyl-1H-pyrrol-3-yl)-4-[(2-bromoacryloyl)amino]-1-methyl-1H-pyrrole-2-carboxamide hydrochloride], the IC50 was 0.00086 µg/mL in series [3] (setting [6]) and 0.00026 µg/mL in series [4].

For `C=C(Br)C(=O)Nc1cc(C(=O)Nc2cc(C(=O)Nc3cc(C(=O)Nc4cc(C(=O)NCCNC(=N)N)n(C)c4)n(C)c3)n(C)c2)n(C)c1.Cl` [PNU 166196, N-(5-{[(5-{[(5-{[(2-{[amino(imino)methyl]amino}ethyl)amino]carbonyl}-1-methyl-1H-pyrrol-3-yl)amino]carbonyl}-1-methyl-1H-pyrrol-3-yl)amino]carbonyl}-1-methyl-1H-pyrrol-3-yl)-4-[(2-bromoacryloyl)amino]-1-methyl-1H-pyrrole-2-carboxamide hydrochloride], the half-inhibitory concentration (IC50) in series [3] (setting [6]) is 0.00162 µg/mL; in series [4] it was 0.00049 µg/mL. Also, the “Cytotoxicity (percentage of growth inhibition) in BSO pretreated cells in respect to BSO-untreated ones” value in series [1] (A2780) was “significantly decreased”. In addition, the inhibition at 0.3 µg/mL in series [1] (Homo sapiens, A2780, A2780, 300 ng/ml, no BSO) came out at 43 ± 2.5%. Further, the inhibition at 1 µg/mL in series [1] (Homo sapiens, A2780, A2780, 1000 ng/ml, no BSO) came out at 64.5 ± 14.5%. The inhibition at 3 µg/mL was 38% in series [1] (Homo sapiens, A2780, read-out: Growth inhibition %, A2780, 3000 ng/ml, BSO 0.1 mM 24 h before and during treatment); 77.5% in series [1] (Homo sapiens, A2780, read-out: Growth inhibition %, A2780, 3000 ng/ml, no BSO). The “Apoptotic effect (percentage of cells with apoptotic morphology) in BSO pretreated cells in respect to BSO-untreated ones” value in series [2] (A2780) is reported as “significantly decreased”. Also, the Apoptosis % in series [2] (A2780, 300 ng/ml, no BSO) is 17.5 ± 6.5%; in series [2] (A2780, 1000 ng/ml, no BSO), 49.5 ± 15.5%; in series [2] (A2780, 3000 ng/ml, BSO 0.1 mM 24 h before and during treatment), 11.5%; in series [2] (A2780, 3000 ng/ml, no BSO, hydrochloride), 74.5% and 74.5 ± 15.5%.

`Cn1cc(NC(=O)c2cc(NC(=O)c3cc(NC(=O)c4ccc(N(CCCl)CCCl)cc4)cn3C)cn2C)cc1C(=O)NCCC(=N)N` [Tallimustine, 3-[1-methyl-4-[1-methyl-4-[1-methyl-4-[1-methyl-4-[N,N-bis(2-chloroethyl)amino]benzenecarboxamindo]pyrrole-2-carboxamido]pyrrole-2-carboxamido]pyrrole-2-carboxamido]propionamidine]: the half-inhibitory concentration (IC50) in series [3] (L1210, 48 h) was 0.0225 µg/mL (≈ 0.0323 µM); in series [4], 0.0274 µg/mL (≈ 0.0393 µM). For the same compound, the “Cytotoxicity on L1210/L-PAM cells in respect to L1210 cells” value in series [4] is recorded as “comparable”.

A word on the IC50: it is the concentration that inhibits the measured activity by half.
